Where two headings read alike, the source gives them in different places.

One test has as its target recombinant human S1PR1 (Homo sapiens, UniProt P21453). Kind of test: [32P]S1P competitive binding assay, S1PR1. The following applies: for fold decrease of S1PR1 binding potency compared to 10a: ratio of IC50 values versus 10a.
For the next test, the target named is recombinant human S1PR5 (Homo sapiens, UniProt Q9H228). Kind of test: [32P]S1P competitive binding assay, S1PR5. The conditions noted are these: read-out: IC50 S1PR5; competition against [32P]S1P, recombinant human S1PR5 membranes; mean ± SD.
In the next test the target is recombinant human S1PR2 (Homo sapiens, UniProt O95136). Kind of test: [32P]S1P competitive binding assay, S1PR2.
The next test has as its target T1, recombinant human S1PR4 (Homo sapiens, UniProt O95977).
T1 sequence (O95977 1-384): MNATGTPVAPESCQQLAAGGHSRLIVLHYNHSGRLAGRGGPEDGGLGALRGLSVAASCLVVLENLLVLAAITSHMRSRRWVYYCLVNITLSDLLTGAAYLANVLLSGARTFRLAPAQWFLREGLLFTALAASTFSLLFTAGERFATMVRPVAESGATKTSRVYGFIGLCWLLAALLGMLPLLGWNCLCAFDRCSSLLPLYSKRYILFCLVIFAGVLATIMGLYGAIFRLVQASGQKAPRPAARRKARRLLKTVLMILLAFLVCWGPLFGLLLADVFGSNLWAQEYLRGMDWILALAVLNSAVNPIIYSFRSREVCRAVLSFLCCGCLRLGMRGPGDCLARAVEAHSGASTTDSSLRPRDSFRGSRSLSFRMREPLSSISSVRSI
Kind of test: [32P]S1P competitive binding assay, S1PR4. The following applies: read-out: IC50 S1PR4; competition against [32P]S1P, recombinant human S1PR4 membranes; mean ± SD.

The target in another test is recombinant human S1PR3 (Homo sapiens, UniProt Q99500). The test is described as follows: [32P]S1P competitive binding assay, S1PR3.
The mark [1] stands for this setting: read-out: IC50 S1PR1, competition against [32P]S1P, cell membranes expressing recombinant human S1PR1, mean ± SD, at least 3 independent experiments in duplicate.

Sequence of recombinant human S1PR2 (O95136 whole entry): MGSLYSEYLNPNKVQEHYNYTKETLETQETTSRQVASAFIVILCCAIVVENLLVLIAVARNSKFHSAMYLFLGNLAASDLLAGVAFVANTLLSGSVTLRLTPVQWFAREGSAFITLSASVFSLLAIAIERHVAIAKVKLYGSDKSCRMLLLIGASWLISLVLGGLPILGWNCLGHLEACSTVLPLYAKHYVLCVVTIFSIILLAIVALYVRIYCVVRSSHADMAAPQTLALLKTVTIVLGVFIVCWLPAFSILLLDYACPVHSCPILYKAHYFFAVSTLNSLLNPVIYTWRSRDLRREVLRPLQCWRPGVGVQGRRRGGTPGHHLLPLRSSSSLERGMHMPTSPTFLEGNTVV
Sequence of recombinant human S1PR3 (Q99500 whole entry): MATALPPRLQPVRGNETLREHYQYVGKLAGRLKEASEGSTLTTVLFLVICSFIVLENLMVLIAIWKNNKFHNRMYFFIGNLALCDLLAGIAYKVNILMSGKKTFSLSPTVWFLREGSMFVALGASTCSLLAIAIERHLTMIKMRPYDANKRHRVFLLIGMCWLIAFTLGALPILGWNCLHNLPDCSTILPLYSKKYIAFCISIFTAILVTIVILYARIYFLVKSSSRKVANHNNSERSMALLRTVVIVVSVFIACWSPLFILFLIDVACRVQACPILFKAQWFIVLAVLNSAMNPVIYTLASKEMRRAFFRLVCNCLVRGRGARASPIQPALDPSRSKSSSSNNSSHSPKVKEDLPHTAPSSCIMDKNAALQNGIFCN
Sequence of recombinant human S1PR1 (P21453 whole entry): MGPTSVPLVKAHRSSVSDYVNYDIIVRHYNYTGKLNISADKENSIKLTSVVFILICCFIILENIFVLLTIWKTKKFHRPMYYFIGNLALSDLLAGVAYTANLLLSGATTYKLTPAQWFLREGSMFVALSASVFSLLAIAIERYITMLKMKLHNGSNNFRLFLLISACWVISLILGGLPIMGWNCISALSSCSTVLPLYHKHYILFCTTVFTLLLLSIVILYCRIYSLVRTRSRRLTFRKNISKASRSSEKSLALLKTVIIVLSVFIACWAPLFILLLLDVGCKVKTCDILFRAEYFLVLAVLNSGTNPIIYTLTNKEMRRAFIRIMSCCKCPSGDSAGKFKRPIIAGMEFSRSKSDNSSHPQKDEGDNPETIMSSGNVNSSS
Sequence of recombinant human S1PR5 (Q9H228 whole entry): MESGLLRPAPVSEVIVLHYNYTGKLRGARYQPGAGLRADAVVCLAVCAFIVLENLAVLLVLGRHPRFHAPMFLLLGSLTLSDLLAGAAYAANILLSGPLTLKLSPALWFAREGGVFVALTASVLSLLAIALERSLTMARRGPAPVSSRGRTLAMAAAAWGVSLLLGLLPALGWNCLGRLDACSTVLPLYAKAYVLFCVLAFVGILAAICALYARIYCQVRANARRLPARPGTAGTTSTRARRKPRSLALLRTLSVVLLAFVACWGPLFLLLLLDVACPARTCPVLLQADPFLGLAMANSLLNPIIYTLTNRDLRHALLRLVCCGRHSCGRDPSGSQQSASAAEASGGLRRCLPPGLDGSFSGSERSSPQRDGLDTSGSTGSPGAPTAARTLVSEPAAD

Take `CN(Cc1ccc(-c2noc(-c3ccc(OCCF)c(C(F)(F)F)c3)n2)cc1)CC(O)CO` (racemic) [(±)-13a, (±)-3-((4-(5-(4-(2-Fluoroethoxy)-3-(trifluoromethyl)phenyl)-1,2,4-oxadiazol-3-yl)benzyl)(methyl)amino)propane-1,2-diol]: the IC50 (usually the concentration that inhibits the measured activity by half) at recombinant human S1PR1 (setting [1]) came to 39.9 nM.

In the case of `OCC(O)COCc1ccc(-c2noc(-c3ccc(OCCF)c(C(F)(F)F)c3)n2)cc1` (racemic) [(±)-20b, (±)-3-((4-(5-(4-(2-Fluoroethoxy)-3-(trifluoromethyl)phenyl)-1,2,4-oxadiazol-3-yl)benzyl)oxy)propane-1,2-diol], the IC50 on recombinant human S1PR1 (setting [1]) stood at 23.8 nM.

`OCC(O)c1ccc(-c2noc(-c3ccc(OCCF)c(C(F)(F)F)c3)n2)cc1` (racemic) [(±)-24, (±)-1-(4-(5-(4-(2-Fluoroethoxy)-3-(trifluoromethyl)phenyl)-1,2,4-oxadiazol-3-yl)phenyl)ethane-1,2-diol]: the IC50 is above 1000 nM at recombinant human S1PR5; above 1000 nM on recombinant human S1PR2 (read-out: IC50 S1PR2, competition against [32P]S1P, recombinant human S1PR2 membranes, mean ± SD); below 20 nM at recombinant human S1PR1 (setting [1]); above 1000 nM at recombinant human S1PR4; above 1000 nM at recombinant human S1PR3 (read-out: IC50 S1PR3, competition against [32P]S1P, recombinant human S1PR3 membranes, mean ± SD).

Regarding `OCc1ccc(-c2noc(-c3ccc(OCCF)c(C(F)(F)F)c3)n2)cc1` [10a, (4-(5-(4-(2-Fluoroethoxy)-3-(trifluoromethyl)phenyl)-1,2,4-oxadiazol-3-yl)phenyl)methanol], the IC50 at recombinant human S1PR2 and on recombinant human S1PR3 was above 1000 nM throughout.

Take `N#Cc1cc(-c2nc(-c3ccc(CO)cc3)no2)ccc1OCCF` [10b, 2-(2-Fluoroethoxy)-5-(3-(4-(hydroxymethyl)phenyl)-1,2,4-oxadiazol-5-yl)benzonitrile]: the “fold decrease of S1PR1 binding potency compared to 10a” value at recombinant human S1PR1 is recorded as 2.3 fold.

Regarding `OCc1ccc(-c2noc(-c3ccc(OCCF)cc3)n2)cc1` [10c, (4-(5-(4-(2-Fluoroethoxy)phenyl)-1,2,4-oxadiazol-3-yl)-phenyl)-methanol], the IC50 at recombinant human S1PR1 was above 1000 nM.

For `CN(CCO)Cc1ccc(-c2noc(-c3ccc(OCCF)c(C(F)(F)F)c3)n2)cc1` [13b, 2-((4-(5-(4-(2-Fluoroethoxy)-3-(trifluoromethyl)phenyl)-1,2,4-oxadiazol-3-yl)benzyl)(methyl)amino)ethan-1-ol], the IC50 at recombinant human S1PR1 was 38 nM.

Consider `OCCNCc1ccc(-c2noc(-c3ccc(OCCF)c(C(F)(F)F)c3)n2)cc1` [13d, 2-((4-(5-(4-(2-Fluoroethoxy)-3-(trifluoromethyl)phenyl)-1,2,4-oxadiazol-3-yl)benzyl)amino)ethan-1-ol], for which the IC50 on recombinant human S1PR1 is 48.2 nM.

Consider `OCCOCc1ccc(-c2noc(-c3ccc(OCCF)c(C(F)(F)F)c3)n2)cc1` [17a, 2-((4-(5-(4-(2-Fluoroethoxy)-3-(trifluoromethyl)phenyl)-1,2,4-oxadiazol-3-yl)benzyl)oxy)ethan-1-ol], for which the IC50 at recombinant human S1PR2 and on recombinant human S1PR3 was above 1000 nM throughout.

In the case of `OCCOCCOCc1ccc(-c2noc(-c3ccc(OCCF)c(C(F)(F)F)c3)n2)cc1` [17b, 2-(2-((4-(5-(4-(2-Fluoroethoxy)-3-(trifluoromethyl)phenyl)-1,2,4-oxadiazol-3-yl)benzyl)oxy)ethoxy)ethan-1-ol], the IC50 at recombinant human S1PR2 and on recombinant human S1PR3 was above 1000 nM each time.

In the case of `OCCOCCOCCOCc1ccc(-c2noc(-c3ccc(OCCF)c(C(F)(F)F)c3)n2)cc1` [17c, 2-(2-(2-((4-(5-(4-(2-Fluoroethoxy)-3-(trifluoromethyl)phenyl)-1,2,4-oxadiazol-3-yl)benzyl)oxy)ethoxy)ethoxy)ethan-1-ol], the “fold decrease of S1PR1 binding potency compared to 10a” value at recombinant human S1PR1 is reported as “approximately 16 fold”.

On to `OCCOc1ccc(-c2noc(-c3ccc(OCCF)c(C(F)(F)F)c3)n2)cc1` [20a, 2-(4-(5-(4-(2-Fluoroethoxy)-3-(trifluoromethyl)phenyl)-1,2,4-oxadiazol-3-yl)phenoxy)ethan-1-ol], for which the half-inhibitory concentration (IC50) on recombinant human S1PR1 worked out at 56.6 nM.

Values taken from publication PMC6561338 (Organic & biomolecular chemistry, 2018).
